One may read the Km as the concentration of substrate that gives half-maximal velocity. A word on the IC50: it is the concentration at which inhibition is half-maximal. A low value points to higher potency.

Series [1] in a line: Stability in buffered aqueous solution. The format is physicochemical. The following applies: buffered at pH=7.0.
Series [2] has as its system polyamine transporter. The series is described as follows: Inhibition of [3H]putrescine uptake in ZR-75-1 cells. The following applies: for Ki: ZR-75-1 cells. The format is cell-based, human. How it is done: (§1) The rate of putrescine and spermidine transport was determined in ZR-75-1 cells incubated in serum-free RPMI 1640 medium as described (Lessard, M., Zhao, C., Singh, S. M. and Poulin, R. 1995. J. Biol. Chem. 270: 1685-1694), using [^3H]putrescine (30 Ci/mol) and [^3H]spermidine (20 Ci/mol), respectively as substrates for a 20 minute-assay period. Spermine uptake was similarly determined, using 1 μM [^14C]spermine (32 Ci/mol) as substrate. Uptake activity was expressed per amount of DNA as fluorometrically determined using 3,4-diaminobenzoic acid (Simard, J., Dauvois, S., Haagensen, D. E., Lėvesque, C., Mėrand, Y. and Labrie, F. 1990. Endocrinology, 126: 3223-3231). For the determination of spermidine uptake activity in CHO-K1 cells, 80% confluent cell monolayers were rinsed twice with PBS and incubated for 20 minutes at 37° C. in 400 μl of buffer A (20 mM Tris-HCl, pH 7.4; 0.42 mM CaCl2; 0.41 mM MgSO4; 103 mM NaCl; 5.7 mM KCl; 1.1 mM D-glucose) containing 5 μM [^3H]spermidine (20 Ci/mol). Cell cultures were then washed twice with 1 ml PBS containing 5.7 mM sym-norspermidine. Cells were then lysed with 200-μl aliquot of 1 N NaOH and incubated for 30 minutes at 60° C. After neutralization with 200 μl of 1 N HCl, radioactivity was determined from a 250-μl of the cell lysate by scintillation counting. Uptake activity was expressed per amount of total cellular protein as determined by the method of Bradford (Bradford, M. M. 1976. Anal. Biochem. 72: 248-254). Non-specific binding of radioactive substrate was similarly determined in parallel for both cell lines after a 15 second-incubation with 400 μl of ice-cold uptake solution.
(§2) Kinetic analysis of polyamine transport was performed by determining uptake activity in the presence of a 3 μM [^3H]putrescine or 1 μM [^3H]spermidine plus increasing concentrations of nonradioactive substrate. K[…] Ki and Vmax values were then estimated by Lineweaver-Burke analysis. For competitive inhibitors, Ki values were also estimated by measuring uptake activity in the presence of logarithmically increasing concentrations of antagonist, and using the Cheng-Prusoff equation (Cheng, Y.-C. and Prusoff, W. H. 1973. Biochem. Pharmacol. 22: 3099-3108) by iterative curve fitting for a sigmoidal curve. For mixed competitive/noncompetitive inhibition, two methods were used to calculate kinetic constants. First, the equation [drawing 2] where v, s, and i are the transport velocity, substrate concentration and inhibitor concentration respectively, was used to calculate the inhibition constants for inhibitor/carrier complex formation (Ki) and carrier/inhibitor/substrate complex formation (Ki′) (Dixon, M. and Webb, E. C. 1976. Enzymes, 3rd Ed., Academic Press, San Diego, Calif.). Alternatively, the value of Ki for a mixed competitor/non-competitor was estimated from the intersect of equations v^−1 vs i at two different substrate concentrations (Dixon, M. and Webb, E. C. 1976. Enzymes, 3rd Ed., Academic Press, San Diego, Calif.). Intracellular Accumulation
(§3) In order to evaluate the effectiveness of dimeric triamines as polyamine transport inhibitors, we synthesized N,N′-bis(3-aminopropyl),N,N′-bis(4-aminobutyl)cystamine or BABAC (structure 1, FIG. 25; FIG. 31), and its thiol form N-(3-aminopropyl),N-(4-aminobutyl)cysteamine or AAC (FIG. 31) according to Scheme 4 described above (FIG. 30), using spermidine as a precursor polyamine. The ability of BABAC and AAC to inhibit the intracellular uptake of radio-labeled putrescine and spermidine in the ZR-75-1 human breast cancer cell line was then determined according to standard published procedures (Lessard, et al. and Poulin, et al.) Briefly, ZR-75-1 cells were grown for four days in twenty-four well plates in RPMI 1640 medium supplemented with 10% fetal bovine serum.

For series [3], the system named is ZR-75-1 cells. The series can be described thus: Effect on ZR-75-1 cell proliferation (11 days, DNA content). Type of series: cell-based, human. The following applies: 50 μM. How it is done: (§4) For growth studies, ZR-75-1 cells were cultured in MEZR medium or in phenol red-free RPMI 1640 supplemented with 2 mM L-glutamine, 1 mM sodium pyruvate, 15 mM Hepes, antibiotics, 1 nM 17β-estradiol, 0.5 μg of bovine insulin per ml and 5% (v/v) charcoal-treated fetal bovine serum (SD medium), as indicated in the text. When polyamines or polyamine analogs were added to serum-containing media, 1 mM aminoguanidine was added to inhibit bovine serum amine oxidase (BSAO) activity (Morgan, D. M. L. 1989, in The Physiology of Polyamines (Bachrach, U., and Heimer, Y. M. eds) Vol. I, pp. 203-229, CRC Press, Boca Raton). The effect of the transport inhibitors on cell growth was measured by incubating ZR-75-1 cells for 11 days in medium supplemented with antagonist, polyamines and/or 1 mM DFMO as indicated, followed by colorimetric determination of DNA content with 3,4-diaminobenzoic acid (Simard, J., Dauvois, S., Haagensen, D. E., Lėvesque C., Mėrand, Y. and Labriė, F. 1990. Endocrinology 126: 3223-3231). Medium was changed every other day in these experiments because of the slow reaction of the compound with an unknown component present in the IMEM and RPMI 1640 medium formulation.
The biocompatibility of DESC, MESC, and DEASC was thus evaluated during a long-term (11-day) incubation with ZR-75-1 cells grown in RPMI 1640 containing 10% (v/v) FBS in the absence and presence of 1 mM aminoguanidine. […] Weak growth inhibition caused by the mixed MESC-cysteamine disulfide, however, apparently involved degradation by a copper amine oxidase.

In series [4] the test system is polyamine transporter. The series can be described thus: Inhibition of [14C]spermine uptake in ZR-75-1 cells. The format is cell-based, human. The note with it: for Ki: this work, read-out: Km or Ki, spermine transport. How it is done: as §1, with “Spermine uptake was similarly determined, using 1 μM [^14C]spermine (32 Ci/mol) as substrate.” left out
as §2, §3

Series [5] addresses polyamine transporter. The note with it: ZR-75-1 cells; data annotated a (Lessard et al. 1995); read-out: Km or Ki, putrescine transport; cited from earlier work.
The target of series [6] is polyamine transporter. The following applies: ZR-75-1 cells; data annotated a (Lessard et al. 1995); read-out: Km or Ki, spermidine transport; cited from earlier work.
In series [7] the target is polyamine transporter. The following applies: ZR-75-1 cells; data annotated a (Lessard et al. 1995); read-out: Km or Ki, spermine transport; cited from earlier work.
The subject of series [8] is ZR-75-1 cells. The series is described as follows: Reversal of DFMO-induced growth inhibition by exogenous spermidine. The note with it: 1 mM DFMO. Type of series: cell-based, human. How it is done: as §4, with “3223-3231).” for “3223-3231). Medium was changed every other day in these experiments because of the slow reaction of the compound with an unknown component present in the IMEM and RPMI 1640 medium formulation.”
This possibility was assessed by comparing the ability of DESC to prevent the reversal of DFMO-induced growth inhibition by increasing concentrations of exogenous spermidine.

In series [9] the test system is polyamine transporter. The series can be described thus: Inhibition of [3H]spermidine uptake in ZR-75-1 cells. The format is cell-based, human. The following applies: FIG. 32, 20 μM and 3 μM substrate, respectively, read-out: Apparent Ki, spermidine uptake. How it is done: as §1
as §2, with “Alternatively, the value of Ki for a mixed competitor/non-competitor was estimated from the intersect of equations v^−1 vs i at two different substrate concentrations (Dixon, M. and Webb, E. C. 1976. Enzymes, 3rd Ed., Academic Press, San Diego, Calif.). Intracellular Accumulation” left out
as §3

For series [10] the following is noted: MESC: amino group neighboring the amide linkage; cited from earlier work.
Series [11] deals with ZR-75-1 cells. The series can be described thus: Intracellular accumulation of inhibitor and polyamine contents (HPLC) in ZR-75-1 cells. The format is cell-based, human. The note with it: ZR-75-1 cells, 6-hour incubation, HPLC of cell extracts.
A short description of another series: in vitro. The following applies: human, ZR-75-1 cells.
The subject of series [12] is polyamine transporter. The series is described as follows: Inhibition of [14C]spermine uptake in ZR-75-1 cells. Type of series: cell-based, human. The following applies: 3μM substrate (Example 11), read-out: Ki, [14C]spermine transport.

Where two headings read alike, the source gives them in different places. Bounds are passed on as bounds.

Text for in vitro: FIG. 34 represents the relative cytotoxicity of sym-norspermidine (NSpd), BABAC and TADAX in ZR-75-1 human breast cancer cells. Data are the mean±SD of triplicate determinations from a representative experiment.

Consider `NCCCNCCCC(NCCCN)C(=O)NCCSSCCN` (stereo not shown) [DEASC, N-[2,2′-dithio(ethyl,1-aminoethyl)]spermine-5-carboxamide], for which, in series [1], the “Stability in aqueous solutions” value is given as “stable for months”. In the series on polyamine transporter [2] (Lineweaver-Burke, DESC up to 100 μM, MESC up to 200 μM), the “Mode of inhibition of [3H]putrescine uptake” value is “mixed competitive/non-competitive type”. For the same molecule, the Ki with polyamine transporter [2] (mixed competitive/non-competitive model, read-out: Ki′ (carrier/inhibitor/putrescine complex formation)) came out at 4.1 µM; in the series on polyamine transporter [2] (this work, DEASC: Ki of mixed competitive/non-competitive model, read-out: Ki, putrescine transport), 5.3 ± 0.6 µM; in the series on polyamine transporter [4], 16 ± 3 µM. Moreover, in the series with ZR-75-1 cells [3] (completely prevented by aminoguanidine), the “Inhibition of cell proliferation” value came to 20%. In addition, the “Ki for [14C]spermine transport, fold higher than that of DESC” value in the series with polyamine transporter [4] (FIG. 2) was “about 5 fold”.
Regarding `NCCCCN` [Putrescine, 1,4-butane-diamine], the figures for the Ki at polyamine transporter [5], on polyamine transporter [6] and with polyamine transporter [4] were 3.7 ± 0.4 µM, 125 ± 29 µM and 0.23 ± 0.13 µM, respectively.
With `NCCCCNCCCN` [Spermidine, N-3[aminopropyl]-1,4-diaminobutane], the Ki was 0.23 ± 0.05 µM on polyamine transporter [5], 0.49 ± 0.15 µM at polyamine transporter [6] and 0.37 ± 0.09 µM on polyamine transporter [7]. For the same molecule, the “Spermidine concentration completely reversing DFMO-induced growth inhibition” value with ZR-75-1 cells [8] (11 days) was 0.3 µM. Moreover, the activity at 0.1 µM with ZR-75-1 cells [8] (Homo sapiens, ZR-75-1, 0.1 μM spermidine, read-out: Growth of DFMO-treated cells restored, % of control value) was determined as 78%.
As for `NCCCNCCCCNCCCN` [Spermine, N,N′-bis-[3-aminopropyl]-1,4-butanediamine, reference compound], the Ki on polyamine transporter [5] is 0.33 ± 0.02 µM; with polyamine transporter [2] (FIG. 32, 20 μM and 3 μM substrate, respectively, read-out: Apparent Ki, putrescine uptake), 0.0745 µM; in the series with polyamine transporter [9], 0.4 µM; with polyamine transporter [4], 0.2 ± 0.06 µM. For the same molecule, the “Effect on cell growth” value in the series with ZR-75-1 cells [3] (with or without 1 mM aminoguanidine) is recorded as “acutely cytotoxic”. Moreover, the “pKa of secondary amino group of the spermine head” value in [10] was 8.9-9.8. Moreover, in the series on polyamine transporter [4] (3μM substrate (Example 11), read-out: Apparent Km, spermine transport), the Km was found to be 0.6 µM.
As to `NCCCN(CCCN)Cc1ccc(CN(CCCN)CCCN)cc1` [TADAX, N,N,N′,N′-tetrakis(3-aminopropyl)-p-xylylenediamine], in the series on ZR-75-1 cells [11], the “Accumulation of the compound in cells” value is recorded as “no detectable accumulation”. In “in vitro”, this molecule came in with an IC50 of over 500 µM. In addition, in the series on polyamine transporter [12], the Ki was found to be 1.5 µM.

The values above are taken from patent US6949679B1, “Polyamine transport inhibitors” (Universite Laval, priority 1998, dated 2005).
